From patent US8685974B2 (Bayer CropScience AG, priority 2009, dated 2014)
Marks after values point to notes of the source that are not given here.

Details: pH 2.3

| Molecule | log p |
| --- | --- |
| NNc1nccc(-c2c[nH]nc2-c2ccc(Cl)s2)n1 [Example 78] | 2.26^[a] |
| C#CCNc1cc(-c2cn(CC(C)C)nc2-c2ccc(Cl)s2)cc[n+]1[O-] [Example 84] | 2.92^[a] |
| CCCNc1nccc(-c2c[nH]nc2-c2ccc(Cl)s2)n1 [Example 65] | 1.75^[a] |
| Clc1ccc(-c2n[nH]cc2-c2ccnc(NCc3ccccc3)n2)s1 [Example 90] | 2.37^[a] |
| CC(C)n1cc(-c2ccnc(NC=O)n2)c(-c2ccc(Cl)s2)n1 [Example 144] | 3.81^[a] |
| CCC(C)n1ncc(-c2ccnc(SC)n2)c1-c1ccc(Cl)s1 (stereo not shown) [Example 209] | 4.76^[a] |
| Clc1cc(-c2c[nH]nc2-c2ccc(Cl)s2)ccn1 [Example 40] | 2.75^[a] |
| COCC(C)Nc1nccc(-c2cn(C(C)C)nc2-c2ccc(Cl)s2)n1 (stereo not shown) [Example 178] | 2.82^[a] |
| CSc1nccc(-c2cn(C(C)C)nc2-c2ccc(Cl)s2)n1 [Example 222] | 4.44^[a] |
| CC(C)Cn1cc(-c2cc[n+]([O-])c(NCc3ccccc3)c2)c(-c2ccc(Cl)s2)n1 [Example 73] | 3.73^[a] |
| CC(C)n1cc(-c2ccnc(Cl)n2)c(-c2ccc(Cl)s2)n1 [Example 192] | 4.31^[a] |
| CC(C)Cn1ncc(-c2ccnc(Cl)c2)c1-c1ccc(Cl)s1 [Example 72] | 4.65^[a] |
| CC(C)Cn1cc(-c2ccnc(N(Cc3ccccc3)C(=O)C(C)C)n2)c(-c2ccc(Cl)s2)n1 [Example 94] | 5.88^[a] |
| Clc1ccc(-c2c(-c3ccncc3)cnn2Cc2ccccc2)s1 [Example 42] | 1.94^[a] |
| CC(C)n1cc(-c2ccnc(S(C)(=O)=O)n2)c(-c2ccc(Cl)s2)n1 [Example 203] | 3.15^[a] |

Same assay, conditions: pH 2.7

| Molecule | logP (pH2.7) | log p | logP value of the minor isomer | logP value of the minor isomer (in parenthesis in column Isomer ratio [d]) | logP value of the minor isomer (between parenthesis, Isomer ratio column) | logP (pH2.7), minor isomer |
| --- | --- | --- | --- | --- | --- | --- |
| 4-[3-(5-Chloro-2-thienyl)-1-isobutyl-1H-pyrazol-4-yl]-N-propylpyridin-2-amine 1-oxide | 1.90 | – | – | – | – | – |
| CC(=O)Nc1ccc(-c2nn(C)cc2-c2ccnc(N(C(C)=O)C(C)=O)c2)s1 [Example 290] | – | 1.39^[b] | – | – | – | – |
| CC(C)n1cc(-c2ccnc(N=C(c3ccccc3)c3ccccc3)c2)c(-c2ccc(Cl)s2)n1 [Example 310] | – | 4.46^[b] | – | – | – | – |
| COc1ccc(Cn2nc(-c3ccc(Cl)s3)c(-c3ccncc3)c2[Si](C)(C)C)cc1 [Example 102] | – | 4.84^[b] | – | – | – | – |
| Cn1cc(-c2ccncc2)c(-c2sccc2Cl)n1 [Example 142] | – | 0.78^[b] | (0.88) | – | – | – |
| COc1ccc(Cn2nc(-c3ccc(Cl)s3)c(-c3ccncc3)c2SC)cc1 [Example 103] | – | 3.78^[b] | – | – | – | – |
| C=CCn1cc(-c2ccncc2)c(-c2ccc(F)s2)n1 [Example 382] | – | 1.54^[b] | (1.48) | – | – | – |
| CC(C)=CCn1cc(-c2ccnc(NC(C)C)n2)c(-c2ccc(Cl)s2)n1 [Example 118] | – | 3.44^[b] | – | (3.00) | – | – |
| Clc1ccc(-c2n[nH]c(Br)c2-c2ccncc2)s1 [Example 44] | – | 1.4^[b] | – | – | – | – |
| N#CCn1cc(-c2ccncc2)c(-c2sccc2Cl)n1 [Example 137] | – | 0.93^[b] | (0.78 | – | – | – |
| CC(=O)c1ccc(-c2[nH]ncc2-c2ccncc2)s1 [Example 36] | – | 0.62^[b] | – | – | – | – |
| C#CCNc1cc(-c2cn(CC(C)C)nc2-c2ccc(Cl)s2)ccn1 [Example 112] | – | 2.30^[b] | – | – | – | – |
| Clc1ccc(-c2c(-c3ccncc3)cnn2C2CCCCC2)s1 [Example 12] | – | 2.26^[b] | – | – | – | – |
| CCn1cc(-c2ccnc(NC(=O)c3ccccc3)c2)c(-c2ccc(Cl)s2)n1 [Example 266] | – | 3.55^[b] | – | – | – | – |
| N#CCCn1cc(-c2ccncc2)c(-c2cc(Cl)cs2)n1 [Example 126] | – | 1.16^[b] | – | – | – | – |
| C=CCn1cc(-c2ccnc(NC(C)C)n2)c(-c2ccc(Cl)s2)n1 [Example 155] | – | 2.68^[b] | – | – | – | – |
| CC(C)Nc1nccc(-c2cn(CCC#N)nc2-c2ccc(Cl)s2)n1 [Example 140] | – | 2.15^[b] | – | – | – | – |
| CCCCNC(=O)c1ccc(-c2[nH]ncc2-c2ccncc2)s1 [Example 37] | – | 0.0^[b] | – | – | – | – |
| Fc1ccccc1Cn1cc(-c2ccncc2)c(-c2sccc2Cl)n1 [Example 113] | – | 1.74^[b] | – | (1.76) | – | – |
| FC=Cn1cc(-c2ccnc(N=C(c3ccccc3)c3ccccc3)c2)c(-c2ccc(Cl)s2)n1 [Example 302] | – | 4.67^[b] | – | – | – | – |
| CC(C)=CCn1cc(-c2ccncc2)c(-c2ccc(Br)s2)n1 [Example 355] | – | 2.35^[b] | – | – | (2.11) | – |

| Molecule | logP (pH2.7) | log p | logP value of the minor isomer | logP value of the minor isomer (in parenthesis in column Isomer ratio [d]) | logP value of the minor isomer (between parenthesis, Isomer ratio column) | logP (pH2.7), minor isomer |
| --- | --- | --- | --- | --- | --- | --- |
| CCn1cc(-c2ccnc(NC(=O)OC(C)C)c2)c(-c2ccc(Cl)s2)n1 [Example 268] | – | 3.35^[b] | – | – | – | – |
| CC(C)Cn1cc(-c2cc[n+]([O-])c(N)c2)c(-c2ccc(Cl)s2)n1 [2-Amino-4-[1-isobutyl-3-(5-chloro-2-thienyl)-1H-pyrazol-4-yl]pyridine N oxide] | 2.39 | – | – | – | – | – |
| CCC(C)n1cc(-c2ccnc(NS(=O)(=O)N(C)C)c2)c(-c2ccc(Cl)s2)n1 (stereo not shown) [Example 217] | – | 3.35^[b] | – | – | – | – |
| N#CCn1cc(-c2ccncc2)c(-c2ccc(Cl)s2)n1 [Example 53] | – | 1.4^[b] | – | (1.10) | – | – |
| CC(C)(C)Cn1ncc(-c2ccncn2)c1-c1ccc(Cl)s1 [Example 34] | – | 3.82^[b] | – | – | – | – |
| CC(C)n1ncc(-c2ccncc2)c1-c1ccc(I)s1 [Example 215] | – | 1.78^[b] | – | – | – | – |
| Clc1sc(-c2n[nH]cc2-c2ccncc2)c(Cl)c1Cl [Example 2] | – | 1.52^[b] | – | – | – | – |
| N#Cc1ccccc1Cn1cc(-c2ccncc2)c(-c2ccc(Br)s2)n1 [Example 352] | – | 2.13^[b] | – | – | – | – |
| CCC(C)n1cc(-c2ccnc(NC(=O)C(C)(C)C)c2)c(-c2ccc(Cl)s2)n1 (stereo not shown) [Example 231] | – | 4.35^[b] | – | – | – | – |
| CCC(C)n1cc(-c2ccncc2)c(-c2sccc2Cl)n1 (stereo not shown) [Example 132] | – | 1.56^[b] | (1.67) | – | – | – |
| Cc1[nH]nc(-c2ccc(Cl)s2)c1-c1ccncc1 [Example 68] | – | 1.07^[b] | – | – | – | – |
| CC(C)n1cc(-c2ccnc(N)c2)c(-c2ccc(Cl)s2)n1 [4-[(3/5)-(5-Chloro-2-thienyl)-1-isopropyl-1H-pyrazol-4-yl]pyridin-2-amine] | 1.78 | – | – | – | – | 1.72 |
| COCn1cc(-c2ccncc2)c(-c2sccc2Cl)n1 [Example 129] | – | 0.95^[b] | – | – | – | – |
| C=CCn1cc(-c2ccncc2)c(-c2ccc(Br)s2)n1 [Example 383] | – | 1.82^[b] | (1.73) | – | – | – |
| CCC(C)n1cc(-c2ccnc(NC(=O)c3ccccc3)c2)c(-c2ccc(Cl)s2)n1 (stereo not shown) [Example 237] | – | 4.46^[b] | – | – | – | – |
| CC(C)=CCn1cc(-c2ccncc2)c(-c2sccc2Cl)n1 [Example 133] | – | 1.74^[b] | – | – | – | – |
| CC(C)Nc1nccc(-c2cn(CC(F)F)nc2-c2ccc(Cl)s2)n1 [Example 162] | – | 2.66^[b] | – | – | – | – |
| CC(C)Cn1cc(-c2ccncc2)c(-c2sccc2Cl)n1 [Example 159] | – | 1.62^[b] | – | – | – | – |
| CC(C)=CCn1cc(-c2ccncc2)c(-c2ccc(F)s2)n1 [Example 343] | – | 1.45^[b] | – | – | – | – |
| CC(C)Nc1nccc(-c2cn(C)nc2-c2ccc(Cl)s2)n1 [Example 139] | – | 2.07^[b] | (1.93) | – | – | – |
| [O-][n+]1ccc(-c2c[nH]nc2-c2ccc(Cl)s2)cc1Cl [2-Chloro-4-[3-(5-chloro-2-thienyl)-1H-pyrazol-4-yl]pyridine N oxyde] | 1.57 | – | – | – | – | – |

| Molecule | logP (pH2.7) | log p | logP value of the minor isomer | logP value of the minor isomer (in parenthesis in column Isomer ratio [d]) | logP value of the minor isomer (between parenthesis, Isomer ratio column) | logP (pH2.7), minor isomer |
| --- | --- | --- | --- | --- | --- | --- |
| Cn1cc(-c2ccncc2)c(-c2cc(Cl)cs2)n1 [Example 125] | – | 1.11^[b] | (1.05) | – | – | – |
| FC(F)(F)Cn1cc(-c2ccncc2)c(-c2sccc2Cl)n1 [Example 138] | – | 1.39^[b] | – | – | – | – |
| CCC(C)n1ncc(-c2ccncc2)c1-c1ccc(Cl)s1 (stereo not shown) [Example 9] | – | 1.91^[b] | – | – | – | – |
| CC(C)n1cc(-c2ccncc2)c(-c2ccc(Br)s2)n1 [4-[1-Isopropyl-(3/5)-(5-bromo-2-thienyl)-1H-pyrazol-4-yl]pyridine] | 1.88 | – | – | – | – | 1.76 |
| Fc1cccc(Cn2cc(-c3ccncc3)c(-c3ccc(Cl)s3)n2)c1F [Example 325] | – | 2.39^[b] | – | – | – | – |
| CC#Cc1c(-c2ccncc2)c(-c2ccc(Cl)s2)nn1C(C)C [4-[(3/5)-(5-Chloro-2-thienyl)-1-isopropyl-5-(prop-1-yn-1-yl)-1H-pyrazol-4-yl]pyridine] | 2.78 | – | – | – | – | 2.21 |
| CC(C)n1cc(-c2ccncc2)c(-c2cc(Cl)cs2)n1 [Example 114] | – | 1.6^[b] | – | (1.74) | – | – |
| CC(C)n1cc(-c2ccnc(NS(=O)(=O)N(C)C)c2)c(-c2ccc(Cl)s2)n1 [Example 218] | – | 3^[b] | – | – | – | – |
| Fc1ccc(-c2nn(CC=C(Cl)Cl)cc2-c2ccncc2)s1 [Example 346] | – | 1.43^[b] | – | – | – | – |
| CC(C)Nc1nccc(-c2cn(C3CCCC3)nc2-c2ccc(Cl)s2)n1 [4-[(3/5)-(5-Chloro-2-thienyl)-1-cyclopentyl-1H-pyrazol-4-yl]-2-(isopropylamino)pyrimidine] | 3.61 | – | – | – | – | 3.33 |
| CC(C)Nc1nccc(-c2cn(CC#N)nc2-c2ccc(Cl)s2)n1 [Example 122] | – | 2.4^[b] | – | – | – | – |
| C=CC(C)n1cc(-c2ccnc(NC(C)C)n2)c(-c2ccc(Cl)s2)n1 (stereo not shown) [Example 123] | – | 3.02^[b] | – | (2.73) | – | – |
| CCOCCn1cc(-c2ccncc2)c(-c2sccc2Cl)n1 [Example 135] | – | 1.23^[b] | – | – | – | – |
| CC(=O)Nc1cc(-c2cn(C)nc2-c2ccc(NC(C)=O)s2)ccn1 [Example 216] | – | 0.76^[b] | – | – | – | – |
| N#CCCn1cc(-c2ccncc2)c(-c2sccc2Cl)n1 [Example 143] | – | 0.86^[b] | – | – | – | – |
| Clc1ccsc1-c1nn(C2CCCC2)cc1-c1ccncc1 [Example 160] | – | 1.76^[b] | – | – | – | – |
| Cn1cc(-c2ccnc(NC(=O)c3cccs3)c2)c(-c2ccc(Cl)s2)n1 [Example 273] | – | 3.04^[b] | – | – | – | – |
| CCC(CC)n1cc(-c2ccncc2)c(-c2sccc2Cl)n1 [Example 130] | – | 1.78^[b] | (1.88) | – | – | – |
| CC(C)n1cc(-c2ccnc(Cl)c2)c(-c2ccc(Cl)s2)n1 [Example 315] | – | 4.44^[b] | – | – | – | – |
